Data from patent publication US20160250303A1, “PERFORIN-2 ACTIVATORS AND INHIBITORS AS DRUG TARGETS FOR INFECTIOUS DISEASE AND GUT INFLAMMATION” (UNIVERSITY OF MIAMI, priority 2013, published 2016).

Test system: P-2 mediated bacterial killing
Assay: Perforin-2 mediated killing of MRSA by BV2 phagocytic cells in vitro (FIG. 14c)
Conditions: phagocytic cell BV2, in vitro, listed as MLN4294

Compound: NS(=O)(=O)OC[C@@H]1CC(n2ccc3c(N[C@H]4CCc5ccccc54)ncnc32)C[C@@H]1O (stereo partly shown) [MLN 4924]
- P-2 mediated bacterial killing: blocked
